Results published in patent publication US9296776B2, “Substituted nucleoside derivatives with antiviral and antimicrobial properties” (Eastern Virginia Medical School, priority 2007, dated 2016).
Converted amounts (≈) assume the structure as drawn.

How the values were obtained:
Type in all cases: cell-based
[1] = system: HIV-1 IIIB (cell-free virus); experiment: microbe, parasite or virus in culture; conditions: for EC50 Cell-free HIV-1 (IIIB) / EC50: Table 8; for EC50 Cell-free HIV-1 (IIIB) / EC50 / IC50 Cell-Free Virus IIIB / IC50: 2 h incubation, wash, 48 h culture; for EC50: read-out: EC50 Cell-free HIV-1 (IIIB); for IC50 Cell-Free Virus IIIB / IC50: Table 1; for IC50: Human immunodeficiency virus 1, IIIB, read-out: IC50 Cell-Free Virus IIIB
[2] = system: Cell-associated HIV-1, SupT1 (IIIB); experiment: Single-round infection assay, cell-associated virus SupT1 (IIIB); conditions: Table 1, 2 h incubation, wash, 48 h culture; for IC50: Human immunodeficiency virus 1, IIIB, SUP-T1, read-out: IC50 Cell-Associated Virus SupT1 (IIIB)
[3] = system: HIV-1 BaL (cell-free virus); experiment: Single-round infection assay, cell-free virus BaL; conditions: for IC50 Cell-Free Virus BaL / IC50: Table 1, 2 h incubation, wash, 48 h culture; for IC50: Human immunodeficiency virus 1, BAL, read-out: IC50 Cell-Free Virus BaL

| Compound | EC50 Cell-free HIV-1 (IIIB) [1] [µg/mL] | EC50 [1] [µM] | IC50 Cell-Associated Virus SupT1 (IIIB) [2] [µg/mL] | IC50 Cell-Free Virus IIIB [1] [µg/mL] | IC50 Cell-Free Virus BaL [3] [µg/mL] | also measured |
| --- | --- | --- | --- | --- | --- | --- |
| Cc1cn([C@H]2C[C@H](N=[N+]=[N-])[C@@H](COC(=O)CCC(NC(=O)CCC(=O)OC[C@H]3O[C@@H](n4cc(C)c(=O)[nH]c4=O)C[C@@H]3F)C(=O)OC[C@@H]3O[C@H](n4ccc(N)nc4=O)CS3)O2)c(=O)[nH]c1=O (stereo partly shown) [KPH-914, FLT-Succinate-AZT(glutamyl)-3TC] | 0.9 (≈ 0.964 µM) | 0.96 |  |  |  |  |
| Cc1cn([C@H]2C[C@H](F)[C@@H](CO)O2)c(=O)[nH]c1=O [3′-fluoro-2′,3′-deoxythymidine (FLT), 3′-fluoro-2′,3′-deoxythymidine, reference compound] | 0.2 (≈ 0.819 µM) | 0.8 | >100 | 0.2 (≈ 0.819 µM) | 0.1 (≈ 0.409 µM) |  |
| CCCCCCCCCCCCCCOC[C@H]1O[C@@H](n2cc(C)c(=O)[nH]c2=O)C[C@@H]1N=[N+]=[N-] [3′-azido-2′,3′-dideoxy-5′-O-(tetradecyl)thymidine] |  |  | >100 | 57.8 (≈ 125 µM) | 12.8 (≈ 27.6 µM) |  |
| CCCCCCCCCCCCCC(=O)OC[C@H]1O[C@@H](n2ccc(N)nc2=O)CS1 [5′-O-tetradecanoyl-2′,3′-dideoxy-3′-thiacytidine] |  |  |  |  |  | IC50 [2]: 27.3 µg/mL (≈ 62.1 µM); IC50 [1]: 0.3 µg/mL (≈ 0.682 µM); IC50 [3]: 0.082 µg/mL (≈ 0.187 µM) |
| CCCCCCCCCCCCCC(=O)Nc1ccn([C@H]2CS[C@@H](CO)O2)c(=O)n1 [N4-tetradecanoyl-2′,3′-dideoxy-3′-thiacytidine] |  |  |  |  |  | IC50 [2]: 0.3 µg/mL (≈ 0.682 µM); IC50 [1]: 4.8 µg/mL (≈ 10.9 µM); IC50 [3]: 0.3 µg/mL (≈ 0.682 µM) |
| Cc1cn([C@H]2C=C[C@@H](COC(=O)CCCCCCCCCCCBr)O2)c(=O)[nH]c1=O [12-bromododecanoyl-2′,3′-didehydro-2′,3′-dideoxythymidine] |  |  | >100 | 7.2 (≈ 14.8 µM) | 1.1 (≈ 2.27 µM) |  |
| Cc1cn([C@H]2C[C@H](F)[C@@H](COC(=O)CCCCCCCCCCCBr)O2)c(=O)[nH]c1=O [3′-fluoro-2′,3′-dideoxy-5′-O-(12-bromododecanoyl)thymidine] |  |  | >100 | 0.9 (≈ 1.78 µM) | <0.1 |  |
| [N-]=[N+]=NCCCCCCCCCCCC(=O)OC[C@H]1O[C@@H](n2cc(F)c(N)nc2=O)CS1 [5′-O-(12-azidododecanoyl)-2′,3′-dideoxy-5-fluoro-3′-thiacytidine] |  |  |  |  |  | IC50 [2]: 4.3 µg/mL (≈ 9.14 µM); IC50 [1]: 0.39 µg/mL (≈ 0.829 µM); IC50 [3]: 0.11 µg/mL (≈ 0.234 µM) |
| Cc1cn([C@H]2C[C@H](F)[C@@H](COC(=O)CCC(=O)OC[C@H]3O[C@@H](n4cc(C)c(=O)[nH]c4=O)C[C@@H]3F)O2)c(=O)[nH]c1=O [KPH-912, FLT-succinate-FLT] | 2.1 (≈ 3.68 µM) | 3.7 |  |  |  |  |
| Suramin-3′-fluoro-2′,3′-dideoxythymidine [Suramin-FLT] |  |  |  |  |  | EC50 Cell-Free Virus IIIB ([1]; Table 6): 23.6 µg/mL; EC50 Cell-Free Virus BaL ([3]; Table 6): 6.2 µg/mL |
| Cc1cn([C@H]2C[C@H](N=[N+]=[N-])[C@@H](COC(=O)CCC(=O)OC[C@H]3O[C@@H](n4cc(C)c(=O)[nH]c4=O)C[C@@H]3N=[N+]=[N-])O2)c(=O)[nH]c1=O [KPH-913, AZT-succinate-AZT] | 8.6 (≈ 13.9 µM) | 13.9 |  |  |  |  |

Further lines, with some results ahead:

| EC50 Cell-free HIV-1 (IIIB) [1] [µg/mL] | EC50 [1] [µM] | IC50 Cell-Associated Virus SupT1 (IIIB) [2] [µg/mL] | IC50 Cell-Free Virus IIIB [1] [µg/mL] | IC50 Cell-Free Virus BaL [3] [µg/mL] | Compound | also measured |
| --- | --- | --- | --- | --- | --- | --- |
|  |  | >100 | 5.4 (≈ 11.4 µM) | 2.1 (≈ 4.44 µM) | CCCCCSCCCCCCCC(=O)OC[C@H]1O[C@@H](n2cc(C)c(=O)[nH]c2=O)C[C@@H]1F [3′-fluoro-2′,3′-dideoxy-5′-O-(9-thiatertradecanoyl)thymidine] |  |
| 9.0 (≈ 13.5 µM) | 13.5 |  |  |  | CC(=O)NC(CCC(=O)OC[C@H]1O[C@@H](n2cc(C)c(=O)[nH]c2=O)C[C@@H]1F)C(=O)OC[C@H]1O[C@@H](n2cc(C)c(=O)[nH]c2=O)C[C@@H]1N=[N+]=[N-] (stereo partly shown) [KPH-98, FLT(Glutamyl)-AZT] |  |
|  |  | >100 | 0.5 (≈ 1.03 µM) | 0.1 (≈ 0.206 µM) | CCCCCCCCCCCCC(OC)C(=O)OC[C@H]1O[C@@H](n2cc(C)c(=O)[nH]c2=O)C[C@@H]1F (stereo partly shown) [3′-fluoro-2′,3′-dideoxy-5′-O-(2-methoxytetradecanoyl)thymidine] |  |
|  |  | >100 | 1.5 (≈ 3.14 µM) | 2.4 (≈ 5.03 µM) | CCCCCCCCCCCCCC(=O)OC[C@H]1O[C@@H](n2cc(C)c(=O)[nH]c2=O)C[C@@H]1N=[N+]=[N-] [3′-azido-2′,3′-dideoxy-5′-O-(tetradecanoyl)thymidine] |  |
| 1.6 (≈ 2.01 µM) | 2 |  |  |  | CCCCCCCCCCCCCC(=O)NC(CCC(=O)OC[C@H]1O[C@@H](n2cc(C)c(=O)[nH]c2=O)C[C@@H]1F)C(=O)OC[C@@H]1O[C@H](n2ccc(N)nc2=O)CS1 (stereo partly shown) [KPH-97] |  |
| 4.9 (≈ 5.99 µM) | 6 |  |  |  | CCCCCCCCCCCCCC(=O)NC(CCC(=O)OC[C@H]1O[C@@H](n2cc(C)c(=O)[nH]c2=O)C[C@@H]1N=[N+]=[N-])C(=O)OC[C@@H]1O[C@H](n2ccc(N)nc2=O)CS1 (stereo partly shown) [KPH-910] |  |
